Measurements: article PMC7496091, “Small‐Molecule Inhibitors Targeting Sterol 14α‐Demethylase (CYP51): Synthesis, Molecular Modelling and Evaluation Against Candida albicans” (Chemmedchem, 2020)
Read-outs that look alike come from different tables or passages of the source.

Tests used:
Δ60HsCYP51 [1] = biological target: T1, Δ60HsCYP51 (Homo sapiens, UniProt Q16850); assay: Azole ligand binding titration (type II difference spectra, Kd), Δ60HsCYP51; details: for Kd: 3 μM native Δ60HsCYP51, mean ± SD (12 c n=6), read-out: K d Δ60HsCYP51 (Hs); for Type of difference binding spectra with Δ60HsCYP51: titration with Δ60HsCYP51
Description: Recombinant CYP51 protein studies.
(§1) Dissociation constant (K d). The K d for each CYP51‐azole complex was determined by non‐linear regression (Levenberg‐Marquardt algorithm) using a rearrangement of the Morrison equation for tight ligand binding.34 Where ligand binding was weaker, the Michaelis‐Menten equation was used to fit the data (Figure S5). K d values were determined for each of the three replicate titrations per azole compound and then mean K d values and standard deviations calculated.

C. albicans SC5314 [2] = assay: MIC, CLSI M27-S4 broth dilution, strain SC5314; type: cell-based, Candida albicans; details: Candida albicans, SC5314, 48 hours
Description: The susceptibilities of the SC5314 and CA14C. albicans (azole sensitive) strains to all novel azole derivatives (5, 7 and 12) were determined (Table 3) using the standardized CLSI M27‐S4 broth dilution method.28
Susceptibility testing of C. albicans strains. […] Stock solutions of each agent were prepared in DMSO. Further dilutions were made in RPMI‐1640, and the final concentration of DMSO was 1 % (v/v). The final testing concentrations for all compounds ranged from 0.03–16 μg mL^−1.

CaCYP51 [3] = biological target: T2, CaCYP51 (Candida albicans, UniProt P10613); assay: biochemical; details: for IC50: 1 μM CaCYP51, lanosterol as substrate, curve-fitted, read-out: CaCYP51 IC50; for Ki: Morrison equation estimates, read-out: Kapp/i from the inhibition profiles with CaCYP51
T2 construct: made in house; host or cells: Escherichia coli
Description: […]. […] […]. CYP51 reconstitution assays. IC50 values were determined for individual azole compounds18, 30 using lanosterol as substrate. Azoles were introduced using 2.5 μL of stock solutions in DMSO. CaCYP51 assays contained 1 μM CaCYP51 and 2 μM Homo sapiens cytochrome P450 reductase (HsCPR – UniProtKB accession number P16435) and were incubated for 20 min at 37 °C. HsCYP51 assays contained 0.25 μM Δ60HsCYP51 and 1 μM HsCPR and were incubated for 10 min at 37 °C. Each IC50 experiment was performed in duplicate.

C. albicans CA14 [4] = assay: MIC, CLSI M27-S4 broth dilution, strain CA14; type: cell-based, Candida albicans; details: Candida albicans, CA14, 48 hours
Description: Susceptibility testing of C. albicans strains. […] Stock solutions of each agent were prepared in DMSO. […] The final testing concentrations for all compounds ranged from 0.03–16 μg mL^−1.

CaCYP51 [5] = biological target: T2, CaCYP51; assay: biochemical; type: binding; details: 3 μM native CaCYP51, mean of three replicates ± SD; read-out: K d CaCYP51
Text: […]. There were no signs of compound insolubility (visible or rising background absorbance) during the ligand titrations. […] […].
The rearranged Morrison equation34 gave the best fit to the ligand saturation curves against CaCYP51 (Figure 5) indicating the selected compounds bound tightly to the purified CaCYP51 protein in free solution. Likewise the rearranged Morrison equation34 gave the best fit for binding 5 d and 5 f to Δ60HsCYP51, thus indicating tight binding in free solution (Figure 5). […].
Recombinant CYP51 protein studies. […] All azole ligand binding determinations were performed in triplicate, except the binding of compound 12 c with Δ60HsCYP51 which was performed six times. CYP51 protein samples were diluted with 0.1 M Tris⋅HCl (pH 8.1) and 25 % (w/v) glycerol to the required concentration.
as §1

C. albicans CA14 [6] = assay: Sterol profile analysis by GC-MS, strain CA14; type: cell-based, Candida albicans; details: CA14, % of total sterols, half the MIC (fluconazole 0.06, 5 d 0.06, 5 f 0.015, 12 c 0.5 μg/mL), 18 h
Description: (§2) Sterols were then extracted and analysed by GC‐MS and sterol profiles (% of the total sterol extracted) were determined (Table 6).
(§3) Sterol profile analysis of C. albicans strains. […] Cells were pelleted and washed with ddH2O and non‐saponifiable lipids were extracted using methanolic KOH as reported previously.41 Samples were dried in a vacuum centrifuge and were derivatised by the addition of 100 μL 90 % BSTFA / 10 % TMCS (Sigma), 200 μL anhydrous pyridine (Sigma) and heating for 2 h at 80 °C. TMS‐derivatised sterols were analysed and identified by using GC/MS (Thermo 1300 GC coupled to a Thermo ISQ mass spectrometer, Thermo Scientific) with reference to retention times and fragmentation spectra for known standards. GC/MS data files were analysed using Xcalibur software (Thermo Scientific) to determine sterol profiles for all isolates and to integrate peak areas.

Δ60HsCYP51 [7] = biological target: T1, Δ60HsCYP51; assay: CYP51 reconstitution assay (IC50), Δ60HsCYP51; type: biochemical; details: 0.25 μM Δ60HsCYP51, lanosterol as substrate; read-out: IC50 Δ60HsCYP51 (Hs)
Description: CYP51 reconstitution assays. […] Azoles were introduced using 2.5 μL of stock solutions in DMSO. […] Each IC50 experiment was performed in duplicate.

C. albicans SC5314 [8] = assay: Sterol profile analysis by GC-MS, strain SC5314; type: cell-based, Candida albicans; details: SC5314, % of total sterols, half the MIC (fluconazole 0.06, 5 d 0.06, 5 f 0.015, 12 c 0.5 μg/mL), 18 h
Description: as §2, §3

CaCYP51 [9] = biological target: T2, CaCYP51; details: 1 μM CaCYP51 ref 21; read-out: IC50 CaCYP51 (Ca) (converted); cited from earlier work
Δ60HsCYP51 [10] = biological target: T1, Δ60HsCYP51; details: cited from earlier work; for IC50: read-out: IC50 Δ60HsCYP51 (Hs), 0.4 μM Δ60HsCYP51 ref 21
Δ60HsCYP51 [11] = biological target: T1, Δ60HsCYP51; details: read-out: K d Δ60HsCYP51 (Hs); cited from earlier work

T2 sequence (P10613 whole entry): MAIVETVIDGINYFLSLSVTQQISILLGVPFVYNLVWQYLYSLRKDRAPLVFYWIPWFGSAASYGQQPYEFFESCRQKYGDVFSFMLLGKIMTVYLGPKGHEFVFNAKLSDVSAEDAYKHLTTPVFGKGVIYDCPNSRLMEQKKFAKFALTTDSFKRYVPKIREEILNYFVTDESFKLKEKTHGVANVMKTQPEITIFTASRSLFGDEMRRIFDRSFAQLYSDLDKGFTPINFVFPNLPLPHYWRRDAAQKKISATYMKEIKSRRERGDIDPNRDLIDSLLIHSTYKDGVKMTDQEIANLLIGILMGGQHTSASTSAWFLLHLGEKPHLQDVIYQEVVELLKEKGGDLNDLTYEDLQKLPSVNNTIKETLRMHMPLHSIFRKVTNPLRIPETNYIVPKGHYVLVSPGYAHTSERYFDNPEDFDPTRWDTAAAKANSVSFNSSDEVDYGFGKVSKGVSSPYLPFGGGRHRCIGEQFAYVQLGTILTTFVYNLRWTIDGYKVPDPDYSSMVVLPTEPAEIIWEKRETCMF
T1 sequence (Q16850 61-509, stated change not applied): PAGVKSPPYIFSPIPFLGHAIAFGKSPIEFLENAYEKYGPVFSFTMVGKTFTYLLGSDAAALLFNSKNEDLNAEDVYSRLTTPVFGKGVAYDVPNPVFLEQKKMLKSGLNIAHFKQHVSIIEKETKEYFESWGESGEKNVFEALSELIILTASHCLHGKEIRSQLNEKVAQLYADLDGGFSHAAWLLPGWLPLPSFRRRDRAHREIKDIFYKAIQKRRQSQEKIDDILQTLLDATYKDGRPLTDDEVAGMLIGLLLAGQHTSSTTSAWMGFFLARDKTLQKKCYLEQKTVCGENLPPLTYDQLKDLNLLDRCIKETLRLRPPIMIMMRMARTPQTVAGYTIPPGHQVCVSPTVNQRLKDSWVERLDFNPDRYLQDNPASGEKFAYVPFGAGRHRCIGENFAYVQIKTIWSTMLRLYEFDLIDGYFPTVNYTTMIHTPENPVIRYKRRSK
T1 sequence (P16435 2-677, stated change not applied, further chain): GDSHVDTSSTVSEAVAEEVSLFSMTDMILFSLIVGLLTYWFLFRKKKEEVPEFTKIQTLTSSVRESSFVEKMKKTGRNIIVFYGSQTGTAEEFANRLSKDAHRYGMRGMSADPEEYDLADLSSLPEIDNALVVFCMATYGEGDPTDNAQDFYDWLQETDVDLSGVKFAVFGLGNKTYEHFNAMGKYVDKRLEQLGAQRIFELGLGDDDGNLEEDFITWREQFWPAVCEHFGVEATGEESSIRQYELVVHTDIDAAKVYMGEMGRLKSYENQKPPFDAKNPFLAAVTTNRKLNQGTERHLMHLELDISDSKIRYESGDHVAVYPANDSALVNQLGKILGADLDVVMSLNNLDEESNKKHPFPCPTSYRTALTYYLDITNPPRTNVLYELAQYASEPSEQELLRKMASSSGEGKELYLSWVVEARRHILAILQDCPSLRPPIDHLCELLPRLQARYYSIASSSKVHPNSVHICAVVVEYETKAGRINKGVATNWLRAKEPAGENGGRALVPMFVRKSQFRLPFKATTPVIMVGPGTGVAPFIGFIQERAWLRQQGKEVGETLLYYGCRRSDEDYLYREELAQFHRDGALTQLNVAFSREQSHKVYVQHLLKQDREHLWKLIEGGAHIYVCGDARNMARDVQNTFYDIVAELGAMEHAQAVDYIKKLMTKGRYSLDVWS

Structure (SMILES) | melting point [°C] | Kd (Δ60HsCYP51 [1]) [nM] | Type of difference binding spectra with Δ60HsCYP51 (Δ60HsCYP51 [1]) | MIC (C. albicans SC5314 [2]; 80 % reduction in turbidity) [µg/mL] | MIC (C. albicans SC5314 [2]; value in brackets) [µM] | IC50 (CaCYP51 [3]) [nM] | Ki (CaCYP51 [3]) [nM] | MIC (C. albicans CA14 [4]; 80 % reduction in turbidity) [µg/mL] | MIC (C. albicans CA14 [4]; value in brackets) [µM] | Kd (CaCYP51 [5]) [nM] | IC50 (Δ60HsCYP51 [7]) [µM] | Sterol composition: diol (14α‐methyl ergosta‐8,24(28)‐dien‐3,6‐diol) (C. albicans CA14 [6]) [%] | Sterol composition: eburicol (C. albicans CA14 [6]) [%] | Sterol composition: ergosterol (C. albicans CA14 [6]) [%] | Sterol composition: lanosterol (C. albicans CA14 [6]) [%] | Sterol composition: total 14α‐methylated sterols (C. albicans CA14 [6]) [%] | Sterol composition: diol (14α‐methyl ergosta‐8,24(28)‐dien‐3,6‐diol) (C. albicans SC5314 [8]) [%] | Sterol composition: eburicol (C. albicans SC5314 [8]) [%] | Sterol composition: ergosterol (C. albicans SC5314 [8]) [%] | Sterol composition: lanosterol (C. albicans SC5314 [8]) [%] | further results
CCC(C)n1ncn(-c2ccc(N3CCN(c4ccc(OCC5COC(Cn6cncn6)(c6ccc(Cl)cc6Cl)O5)cc4)CC3)cc2)c1=O (stereo not drawn) [itraconazole] | – | – | – | – | – | – | – | – | – | – | – | – | – | – | – | – | – | – | – | – | IC50 (CaCYP51 [9]): 400 nM; IC50 (Δ60HsCYP51 [10]): 70 µM; Kd (Δ60HsCYP51 [11]): 92 nM
CC(=O)N1CCN(c2ccc(OCC3COC(Cn4ccnc4)(c4ccc(Cl)cc4Cl)O3)cc2)CC1 (stereo not drawn) [ketoconazole] | – | – | – | – | – | – | – | – | – | – | – | – | – | – | – | – | – | – | – | – | IC50 (CaCYP51 [9]): 500 nM; IC50 (Δ60HsCYP51 [10]): 4.5 µM
O[C@@](Cn1cnnn1)(c1ccc(F)cc1F)C(F)(F)c1ccc(-c2ccc(OCC(F)(F)F)cc2)cn1 [oteseconazole] | – | – | – | – | – | – | – | – | – | – | – | – | – | – | – | – | – | – | – | – | Inhibition of Δ60HsCYP51 activity (Δ60HsCYP51 [10]; at concentrations up to 50 μM ref 31): did not inhibit

Further lines, with some results ahead:

melting point [°C] | Kd (Δ60HsCYP51 [1]) [nM] | Type of difference binding spectra with Δ60HsCYP51 (Δ60HsCYP51 [1]) | MIC (C. albicans SC5314 [2]; 80 % reduction in turbidity) [µg/mL] | MIC (C. albicans SC5314 [2]; value in brackets) [µM] | IC50 (CaCYP51 [3]) [nM] | Ki (CaCYP51 [3]) [nM] | MIC (C. albicans CA14 [4]; 80 % reduction in turbidity) [µg/mL] | MIC (C. albicans CA14 [4]; value in brackets) [µM] | Kd (CaCYP51 [5]) [nM] | IC50 (Δ60HsCYP51 [7]) [µM] | Structure (SMILES) | Sterol composition: diol (14α‐methyl ergosta‐8,24(28)‐dien‐3,6‐diol) (C. albicans CA14 [6]) [%] | Sterol composition: eburicol (C. albicans CA14 [6]) [%] | Sterol composition: ergosterol (C. albicans CA14 [6]) [%] | Sterol composition: lanosterol (C. albicans CA14 [6]) [%] | Sterol composition: total 14α‐methylated sterols (C. albicans CA14 [6]) [%] | Sterol composition: diol (14α‐methyl ergosta‐8,24(28)‐dien‐3,6‐diol) (C. albicans SC5314 [8]) [%] | Sterol composition: eburicol (C. albicans SC5314 [8]) [%] | Sterol composition: ergosterol (C. albicans SC5314 [8]) [%] | Sterol composition: lanosterol (C. albicans SC5314 [8]) [%] | further results
160 to 162 | 45 ± 13 | type II difference binding spectra | 0.125 | 0.33 | 390 | 160 | 0.125 | 0.33 | 17 ± 5 | 3.37 | O=C(NCc1ccc(Cl)cc1)C(Cn1ccnc1)c1ccc(Cl)cc1 (stereo not drawn) [Compound 5 d, N‐(4‐Chlorobenzyl)‐2‐(4‐chlorophenyl)‐3(1H‐imidazol‐1‐yl)propanamide] | 8.2±6.0 | 26.4±5.0 | 7.8±6.5 | 40.4±2.2 | 90.0 | 17.6±7.1 | 20.5±4.4 | 2.7±2.3 | 41.0±5.5 | Sterol composition: total 14α‐methylated sterols (C. albicans SC5314 [8]): 95.8%
148 to 150 | 74 ± 13 | type II difference binding spectra | < 0.03 | < 0.07 | 460 | 200 | < 0.03 | < 0.07 | 62 ± 17 | 3.73 | O=C(NCc1ccc(Cl)cc1Cl)C(Cn1ccnc1)c1ccc(Cl)cc1 (stereo not drawn) [Compound 5 f, 2‐(4‐Chlorophenyl)‐N‐(2,4‐dichlorobenzyl)‐3‐(1H‐imidazol‐1‐yl)propanamide] | 7.5±4.6 | 26.1±0.1 | 4.3±0.5 | 43.6±1.8 | 77.2 | 11.7±1.4 | 21.0±3.3 | 9.1±5.5 | 38.6±3.6 | Sterol composition: total 14α‐methylated sterols (C. albicans SC5314 [8]): 89.3%
122 to 124 | 923 ± 509 | type II difference binding spectra | 1 | 2.02 | 330 | 110 | 1 | 2.02 | 43 ± 18 | 152 | O=C(NCc1ccc(NS(=O)(=O)c2ccc(Cl)cc2)cc1)C(Cn1cncn1)c1ccccc1 (stereo not drawn) [Compound 12 c, N‐(4‐((4‐chlorophenyl)sulfonamido)benzyl)‐2‐phenyl‐3‐(1H‐1,2,4‐triazol‐1‐yl)propanamide] | 9.2±1.2 | 22.4±1.1 | 3.5±1.3 | 43.6±1.5 | 93.3 | 7.2±5.2 | 14.0±3.5 | 24.9±5.5 | 34.5±2.9 | Sterol composition: total 14α‐methylated sterols (C. albicans SC5314 [8]): 70.6%
